Measured values from US8664391B2, “Amide compounds as boosters of antivirals” (Janssen R&D Ireland Ltd, priority 2008, dated 2014).
Read-outs that look alike come from different tables or passages of the source.

Legend:
[1] = system: wild-type HIV-1 IIIB strain; assay: Antiviral activity in MT4 LTR-EGFP cellular assay; type: cell-based; settings: read-out: Antiviral Activity IIIB pEC50 (converted)
Description: (§1) Assay 1 &2: Antiviral Activity/Toxicity
The compounds of the present invention were tested for antiviral activity in a cellular assay, which was performed according to the following procedure.
The human T-cell line MT4 is engineered with Green Fluorescent Protein (GFP) and an HIV-specific promoter, HIV-1 long terminal repeat (LTR). This cell line is designated MT4 LTR-EGFP, and can be used for the in vitro evaluation of anti-HIV activity of investigational compounds. In HIV-1 infected cells, the Tat protein is produced which upregulates the LTR promotor and finally leads to stimulation of the GFP reporter production, allowing measuring ongoing HIV-infection fluorometrically.
(§2) The ratio of CC50 to EC50 is defined as the selectivity index (SI) and is an indication of the selectivity of the anti-HIV activity of the inhibitor. The ultimate monitoring of HIV-1 infection and cytotoxicity is done using a scanning microscope. Image analysis allows very sensitive detection of viral infection. Measurements are done before cell necrosis, which usually takes place about five days after infection, in particular measurements are performed three days after infection.
A pEC50 value corresponds to −log10(EC50). A pCC50 value corresponds to −log10(CC50).

[2] = Cytotoxicity in mock-infected MT4 CMV-EGFP cells; type: cell-based; settings: human, pCC50 = -log10(CC50), read-out: Toxicity MT4 pCC50 (converted)
Description: as §1
Analogously, MT4 cells are engineered with GFP and the constitutional cytomegalovirus (CMV) promotor. This cell line is designated MT4 CMV-EGFP, and can be used for the in vitro evaluation of cytotoxicity of investigational compounds. In this cell line, GFP levels are comparably to those of infected MT4 LTR-EGFP cells. Cytotoxic investigational compounds reduce GFP levels of mock-infected MT4 CMV-EGFP cells.
as §2, with “Effective concentration values such as 50% effective concentration (EC50) can be determined and are usually expressed in μM. An EC50 value is defined as the concentration of test compound that reduces the fluorescence of HIV-infected cells by 50%. The 50% cytotoxic concentration (CC50 in μM) is defined as the concentration of test compound that reduces fluorescence of the mock-infected cells by 50%. The ratio” for “The ratio”
Table 2 lists pEC50 values against the wild-type HIV-1 IIIB strain as well as pCC50 values for a selected number of compounds of the invention. A pEC50 value corresponds to −log10(EC50). A pCC50 value corresponds to −log10(CC50).

[3] = in vitro; type: in vitro ADME, human; settings: pH 7.4
Description: Assay 3: Metabolic Stability of Test Compounds (HLM15′)
Sub-cellular tissue preparations are made according to Gorrod et al. (Xenobiotica, 5, pp. 453-462 (1975)) by centrifugal separation after mechanical homogenization of tissue. Human liver tissue is rinsed in ice-cold 0.1 M Tris-HCl (pH 7.4) buffer to wash excess blood. Tissue is then blotted dry, weighed and chopped coarsely using surgical scissors. The tissue pieces are homogenized in 3 volumes of ice-cold 0.1 M phosphate buffer (pH 7.4) using either a Potter-S (Braun, Italy) equipped with a Teflon pestle or a Sorvall Omni-Mix homogenizer, for 7×10 sec. In both cases, the vessel is kept in/on ice during the homogenization process. Tissue homogenates are centrifuged at 9000×g for 20 min at 4° C. using a Sorvall centrifuge or Beckman Ultracentrifuge. The resulting supernatant can be stored at −80° C. and is designated ‘S9’. The S9 fraction is centrifuged at 100,000×g for 60 min at 4° C. using a Beckman ultracentrifuge. The resulting supernatant is carefully aspirated, aliquoted and designated ‘cytosol’. The pellet is re-suspended in 0.1 M phosphate buffer (pH 7.4) in a final volume of 1 ml per 0.5 g original tissue weight and designated ‘microsomes’. All sub-cellular fractions are aliquoted, immediately frozen in liquid nitrogen and stored at −80° C. until use.
Heat-inactivated (10 min at 95° C.) ‘S9’ or microsomes were used for blank experiments. Reaction mixtures were incubated at 37° C. for 5 min, after which the reaction was started by the addition of 0.8 mM β-NADP. The reaction was incubated for 0 or 15 min. Next, the reaction was stopped by addition of 2 volumes of DMSO (or acetonitrile). Samples were centrifuged (10 min, 900×g) and analyzed by LC-MS.

[4] = target: CYP2C9 (Homo sapiens, UniProt P11712); assay: CYP450 inhibition, fluorescent substrate assay, CYP2C9; type: biochemical
Description: (§3) Assay 4: CYP450 Inhibition […] This fluorescent molecule was measured using a fluorescent plate reader (Victor2 (Wallac) or Fluoroskan (Labsystems)). Compounds inhibiting the enzymatic reaction will result in a decrease of fluorescent signal. CYP P450 enzymes were prepared in house or commercially bought and stored at −80° C. [table] The assay was performed in black 96 well Costar plates. Test compounds were added to a CYP P450 enzyme solution in the presence of an NADPH generating system. After 5 min of preincubation at 37° C., the freshly prepared, phosphate buffered (pH 7.4) substrate solution was added. Known CYP P450 inhibitors were used as positive controls, negative controls were run without CYP P450 enzyme. For final reaction mixture concentrations, see Table 6. […] Then, the reaction was stopped by the addition of 200 μl acetonitrile, and the fluorescent signal was detected. [table] […] Inhibition of TMC114 Metabolisation

[5] = target: T1, CYP2D6 (Homo sapiens, UniProt P10635); assay: CYP450 inhibition, fluorescent substrate assay, CYP2D6; type: biochemical; settings: substrate AMMC 3 μM, read-out: 2D6-AMMC % inh.
T1 construct: host or cells: E. coli
Description: as §3

[6] = target: T2, CYP1A2 (Homo sapiens, UniProt P05177); assay: CYP450 inhibition, fluorescent substrate assay, CYP1A2; type: biochemical; settings: substrate CEC 5 μM, read-out: 1A2-CEC % inh.
T2 construct: host or cells: E. coli
T2 sequence (P05177 1-516): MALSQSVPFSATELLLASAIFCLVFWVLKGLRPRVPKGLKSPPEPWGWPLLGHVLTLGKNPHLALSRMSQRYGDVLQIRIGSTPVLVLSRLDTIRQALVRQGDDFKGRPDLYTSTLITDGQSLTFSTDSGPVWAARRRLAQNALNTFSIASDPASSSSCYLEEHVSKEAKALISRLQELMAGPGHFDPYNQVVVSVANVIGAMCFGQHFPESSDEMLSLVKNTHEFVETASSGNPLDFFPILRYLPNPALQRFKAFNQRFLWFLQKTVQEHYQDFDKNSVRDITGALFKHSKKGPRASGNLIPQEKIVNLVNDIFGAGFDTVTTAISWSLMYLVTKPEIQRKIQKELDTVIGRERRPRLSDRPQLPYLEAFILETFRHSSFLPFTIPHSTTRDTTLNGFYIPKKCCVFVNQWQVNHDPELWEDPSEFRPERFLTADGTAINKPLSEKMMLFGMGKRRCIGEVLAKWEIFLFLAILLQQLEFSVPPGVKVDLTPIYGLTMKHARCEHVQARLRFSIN
Description: as §3

[7] = target: T3, CYP2C19 (Homo sapiens, UniProt P33261); assay: CYP450 inhibition, fluorescent substrate assay, CYP2C19; type: biochemical; settings: substrate CEC 25 μM, read-out: 2C19-CEC % inh.
T3 construct: host or cells: E. coli
Description: as §3

[8] = target: T4, CYP3A4 (Homo sapiens, UniProt P08684); assay: CYP450 inhibition, fluorescent substrate assay, CYP3A4; type: biochemical; settings: 10 μM test compound; for inhibition at 10 min, 10 μM: E. coli expressed CYP3A4, pH 7.4, probe DBF (1 μM), substrate DBF 1 μM, read-out: 3A4-DBF % inh.
T4 construct: host or cells: E. coli
Description: as §3

[9] = Human immunodeficiency virus 1, 72 h, wild-type HIV-1 IIIB, MT4 LTR-EGFP cells, three days after infection, pEC50 = -log10(EC50)
[10] = E. coli expressed CYP2D6, pH 7.4, probe AMMC (3 μM), 10 μM test compound
[11] = E. coli expressed CYP1A2, pH 7.4, probe CEC (5 μM), 10 μM test compound
[12] = E. coli expressed CYP2C19, pH 7.4, probe CEC (25 μM), 10 μM test compound
[13] = E. coli expressed CYP3A4, pH 7.4, probe BFC (150 μM), substrate BFC 150 μM, read-out: 3A4-BFC % inh.
[14] = E. coli expressed CYP3A4, pH 7.4, probe BQ (60 μM), substrate BQ 60 μM, read-out: 3A4-BQ % inh.

Chain of CYP2C9 (P11712 whole entry): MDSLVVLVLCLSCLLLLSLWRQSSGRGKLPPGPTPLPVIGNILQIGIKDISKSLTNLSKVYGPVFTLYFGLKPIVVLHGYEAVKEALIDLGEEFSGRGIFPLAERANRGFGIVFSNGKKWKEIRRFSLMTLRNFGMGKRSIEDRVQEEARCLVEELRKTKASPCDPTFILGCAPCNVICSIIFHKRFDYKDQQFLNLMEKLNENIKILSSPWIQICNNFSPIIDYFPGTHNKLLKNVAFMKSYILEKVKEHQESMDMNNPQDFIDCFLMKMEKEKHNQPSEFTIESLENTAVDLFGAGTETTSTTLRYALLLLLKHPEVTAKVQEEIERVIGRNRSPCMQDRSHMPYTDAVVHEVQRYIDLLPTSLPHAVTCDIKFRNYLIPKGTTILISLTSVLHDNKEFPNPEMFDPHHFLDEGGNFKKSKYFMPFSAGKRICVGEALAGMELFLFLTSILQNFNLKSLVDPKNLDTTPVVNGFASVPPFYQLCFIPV
T3 sequence (P33261 whole entry): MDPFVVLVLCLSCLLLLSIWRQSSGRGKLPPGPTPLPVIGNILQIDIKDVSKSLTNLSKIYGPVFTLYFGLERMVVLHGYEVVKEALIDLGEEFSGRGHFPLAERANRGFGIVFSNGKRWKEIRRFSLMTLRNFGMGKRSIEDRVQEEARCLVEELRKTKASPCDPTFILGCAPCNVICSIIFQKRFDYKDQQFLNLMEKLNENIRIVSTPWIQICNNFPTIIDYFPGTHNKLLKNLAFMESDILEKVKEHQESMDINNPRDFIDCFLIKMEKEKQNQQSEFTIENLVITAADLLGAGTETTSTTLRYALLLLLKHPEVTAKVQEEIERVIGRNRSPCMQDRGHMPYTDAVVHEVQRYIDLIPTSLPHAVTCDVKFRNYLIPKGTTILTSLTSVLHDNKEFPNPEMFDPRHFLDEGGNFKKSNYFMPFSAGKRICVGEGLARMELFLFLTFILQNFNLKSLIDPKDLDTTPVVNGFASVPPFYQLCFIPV
T1 sequence (P10635 whole entry): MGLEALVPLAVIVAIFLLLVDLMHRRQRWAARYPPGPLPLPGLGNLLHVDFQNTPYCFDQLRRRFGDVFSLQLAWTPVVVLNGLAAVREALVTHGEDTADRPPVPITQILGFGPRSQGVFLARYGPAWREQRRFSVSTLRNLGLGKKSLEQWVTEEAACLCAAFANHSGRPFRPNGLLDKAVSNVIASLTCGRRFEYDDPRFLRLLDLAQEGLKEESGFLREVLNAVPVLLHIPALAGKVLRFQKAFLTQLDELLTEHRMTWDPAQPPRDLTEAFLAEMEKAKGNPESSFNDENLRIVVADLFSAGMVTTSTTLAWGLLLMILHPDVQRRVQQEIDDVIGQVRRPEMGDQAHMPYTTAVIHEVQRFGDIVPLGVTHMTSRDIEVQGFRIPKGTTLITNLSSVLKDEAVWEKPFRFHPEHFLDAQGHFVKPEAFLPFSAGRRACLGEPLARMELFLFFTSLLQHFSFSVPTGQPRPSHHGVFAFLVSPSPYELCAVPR
T4 sequence (P08684 whole entry): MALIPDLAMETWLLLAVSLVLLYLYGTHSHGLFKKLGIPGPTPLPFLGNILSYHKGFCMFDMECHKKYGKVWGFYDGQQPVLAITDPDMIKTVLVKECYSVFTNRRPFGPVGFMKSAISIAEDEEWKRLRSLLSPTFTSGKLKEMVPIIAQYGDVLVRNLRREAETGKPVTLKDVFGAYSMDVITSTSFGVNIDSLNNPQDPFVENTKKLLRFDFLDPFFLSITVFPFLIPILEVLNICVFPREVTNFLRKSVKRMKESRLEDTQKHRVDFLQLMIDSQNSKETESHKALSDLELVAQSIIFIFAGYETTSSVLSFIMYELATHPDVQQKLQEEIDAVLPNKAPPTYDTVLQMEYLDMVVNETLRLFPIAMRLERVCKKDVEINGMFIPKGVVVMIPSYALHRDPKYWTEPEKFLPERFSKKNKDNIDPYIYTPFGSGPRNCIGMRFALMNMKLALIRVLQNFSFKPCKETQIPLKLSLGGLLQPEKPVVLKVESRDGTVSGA

SMILES	EC50 ([1]; Human immunodeficiency virus 1, IIIB, 72 h)	CC50 at 3 days [2]	recovery at 15 min, 5 μM ([3]; human liver microsomes 1 mg/ml, 5 μM test compound, 15 min, 37° C., read-out: % recovery HLM15)	inhibition at 30 min, 10 μM ([4]; pH 7.4, 10 μM test compound, substrate MFC 200 μM, 30 min, read-out: 2C9-MFC % inh.)	inhibition at 45 min, 10 μM ([5]; pH 7.4, 10 μM test compound)	inhibition at 15 min, 10 μM ([6]; pH 7.4, 10 μM test compound)	inhibition at 30 min, 10 μM ([7]; pH 7.4, 10 μM test compound)	EC50 [1, 9]	recovery at 15 min, 5 μM ([3]; human)	inhibition at 45 min, 10 μM [5, 10]	inhibition at 15 min, 10 μM [6, 11]	inhibition at 30 min, 10 μM [7, 12]	inhibition at 30 min, 10 μM [8, 13]	inhibition at 30 min, 10 μM [8, 14]	inhibition at 10 min, 10 μM [8]	inhibition at 30 min, 10 μM ([4]; pH 7.4)
CC(C)CN(C[C@@H](O)[C@H](Cc1ccccc1)NC(=O)OCc1cncs1)C(=O)c1ccc2c(c1)OCO2 [Compound C1]	47.9 µM	57.5 µM	56%	97%	73%	36%	94%									
CC(C)CN(C[C@@H](O)[C@H](Cc1ccccc1)NC(=O)OCc1cncs1)C(=O)c1ccc2occc2c1 [Compound C2]		45.7 µM						44.7 µM	67%	102%	40%	98%				
Cc1ccc(C(=O)N(CC(C)C)C[C@@H](O)[C@H](Cc2ccccc2)NC(=O)OCc2cncs2)cc1 [Compound C3]		70.8 µM						52.5 µM	54%	49%	20%	90%	95%	85%	97%	99%
CC(C)CN(C[C@@H](O)[C@H](Cc1ccccc1)NC(=O)OCc1cncs1)C(=O)c1ccc(C(F)(F)F)cc1 [Compound C4]		39.8 µM						31.6 µM	57%	79%	62%	92%	95%	85%	99%	99%
COc1ccc(C(=O)N(CC(C)C)C[C@@H](O)[C@H](Cc2ccccc2)NC(=O)OCc2cncs2)cc1 [Compound C5]		87.1 µM						85.1 µM	83%	41%	14%	86%	92%	82%	92%	94%
CC(C)CN(C[C@@H](O)[C@H](Cc1ccccc1)NC(=O)OCc1cncs1)C(=O)c1cccc(F)c1 [Compound C19]		> 100 µM							69%	53%	43%	77%				93%
CC(C)(O)CN(C[C@@H](O)[C@H](Cc1ccccc1)NC(=O)OCc1cncs1)C(=O)c1ccncc1 [Compound C26]		> 100 µM							92%	30%	0%	35%	95%	77%	84%	82%
